Data set [1] has as its system HBV. The data set is described as follows: HepAD38 antiviral assay: reduction of viral product accumulation (virion DNA by qPCR, HBsAg or HBeAg by ELISA). It is filed as cell-based, hepatitis B virus. The note with it: for pEC50: HepAD38 cells, five days after compound addition, 50% reduction of viral product vs no drug controls, read-out: HepAD38 EC50. The procedure, abridged:
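Tetracycline-free HepAD38 cells exposed to compound (DMSO stock diluted 1:200) for 5 days, or 8 days with media and compound refreshed on d2 and d5. Virion DNA quantified by qPCR after lysis; HBsAg or HBeAg measured by ELISA on diluted samples.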

Data set [2] is described as follows: Compound toxicity by ATPLite (total ATP levels). The note with it: human, three days after compound addition, 50% reduction of total ATP. It is filed as cell-based. The procedure:
Methods: HepAD38 cells are maintained as previously reported (Ladner et al, Antimicrob. Agents Chemother. 1997, […], 1715). Briefly, cells are passaged upon attaining confluency in DMEM/F12 media in the presence of 10% FBS, Penn/Strep, 250 μg/mL G418, and 1 ug/ml tetracycline. Novel compounds are screened by first washing cells three times with PBS to remove tetracycline, and plating in 96 well plates at 35,000 cells/well. Compounds dissolved in DMSO are then diluted 1:200 into wells containing cells. Five days after compound addition, material is harvested for analysis. For an extended 8 days analysis, cells are plated and treated as described above, but media and compound are refreshed on d2 and d5 post initial treatment.
Compound toxicity is evaluated by seeding cells at 15,000 cells/well and treating with compound as described above.

EC50 and CC50 data for 39 compounds are collected here from patent US11596611B2, “Hepatitis B antiviral agents” (ENANTA PHARMACEUTICALS, INC., priority 2017, dated 2023).

pEC50: −log10 of the molar value. Read-outs that look alike come from different tables or passages of the source.

`COCC1(NC(=O)C[C@]2(O)C3CCC2C[C@@H](S(=O)(=O)c2cc(C(=O)Nc4cc(F)c(F)c(F)c4)ccc2Cl)C3)CC1` [Example 116]: the pEC50 in data set [1] (Hepatitis B virus, 120 h) is over 6.98. Further, in data set [2] (numeric bounds), the CC50 at 3 days is over 3000 nM.
The corresponding values for `[N-]=[N+]=NCC(O)[C@]1(O)C2CCC1C[C@@H](S(=O)(=O)c1cc(C(=O)Nc3cc(F)c(F)c(F)c3)ccc1Cl)C2` (mixture of isomers) [Example 11] are over 6.98 and over 6250 nM.
`O=C(Nc1ccc(F)c(F)c1)c1ccc(Cl)c(S(=O)(=O)[C@@H]2CC3CC[C@@H](C2)[C@@]3(O)C(O)c2nccs2)c1` (stereo partly shown) [Example 302]: the negative logarithm of the EC50 (pEC50) in data set [1] (Hepatitis B virus, 120 h) is over 6.98. This compound yielded a CC50 at 3 days in data set [2] (class symbols) of over 25000 nM.
The corresponding values for `C=CCc1cc(Cl)c(S(=O)(=O)[C@H]2CC3CCC(C2)[C@@]3(C)O)cc1C(=O)Nc1ccc(F)c(F)c1` [Example 135] are over 6.98 and under 10000 nM.
As for `Cc1cc(Cl)c(S(=O)(=O)[C@H]2CC3CCC(C2)[C@]3(O)[C@H](O)[C@H](C)O)cc1C(=O)Nc1ccc(F)c(F)c1` [Example 335], the pEC50 in data set [1] (Hepatitis B virus, 120 h) is over 6.98. The same compound had a CC50 at 3 days in data set [2] (class symbols) of over 25000 nM.
Regarding `C/C=C/C(=O)NC[C@]1(O)C2CCC1C[C@@H](S(=O)(=O)c1cc(C(=O)Nc3cc(F)c(F)c(F)c3)ccc1Cl)C2` [Example 12], in data set [1] (Hepatitis B virus, 120 h), the pEC50 was over 6.98. The same compound gave a half-maximal cytotoxic concentration (CC50) at 3 days in data set [2] (numeric bounds) of over 3000 nM.
Take `Cc1cccc(C(O)[C@@]2(O)C3CC[C@H]2C[C@H](S(=O)(=O)c2cc(C(=O)Nc4ccc(F)c(F)c4)ccc2Cl)C3)n1` (stereo partly shown) [Example 294]: the negative-log EC50 (pEC50) in data set [1] (Hepatitis B virus, 120 h) is over 6.98. The CC50 at 3 days in data set [2] (class symbols) is over 25000 nM.
The corresponding values for `O=C(Nc1ccc(F)c(F)c1)c1ccc(Cl)c(S(=O)(=O)[C@H]2CC3CCC(C2)[C@]3(O)C(O)c2ncco2)c1` (stereo partly shown) [Example 290] are over 6.98 and over 25000 nM.
With `C[C@@H](O)[C@@H](O)[C@]1(O)C2CCC1C[C@@H](S(=O)(=O)c1cc(C(=O)Nc3cc(F)c(F)c(F)c3)ccc1Cl)C2` (racemic) [Example 4], the pEC50 in data set [1] (Hepatitis B virus, 120 h) was over 6.98. The same compound showed a cytotoxic concentration (CC50) at 3 days in data set [2] (numeric bounds) of over 12500 nM.
For the compound `C=CCNC(=O)C[C@]1(O)C2CCC1C[C@@H](S(=O)(=O)c1cc(C(=O)Nc3cc(F)c(F)c(F)c3)ccc1Cl)C2` [Example 58], the pEC50 in data set [1] (Hepatitis B virus, 120 h) is over 6.98. Moreover, in data set [2] (numeric bounds), the CC50 at 3 days is over 12500 nM.
As for `CC(O)C(O)CNC(=O)C[C@]1(O)C2CCC1C[C@@H](S(=O)(=O)c1cc(C(=O)Nc3cc(F)c(F)c(F)c3)ccc1Cl)C2` (stereo partly shown) [Example 57], the pEC50 in data set [1] (Hepatitis B virus, 120 h) is 6.70 to 7.00.
For the compound `COC(=O)N[C@H](C(=O)N1C2CCC1CC(S(=O)(=O)c1cc(C(=O)Nc3cc(F)c(F)c(F)c3)ccc1Cl)C2)C(C)C` (stereo partly shown) [Example 142], the EC50 in data set [1] (Hepatitis B virus, HePAD38, 120 h, read-out: HepAD38 EC50 (μM)) was 0.1 to 0.2 µM.
Regarding `O=C(Nc1cc(F)c(F)c(F)c1)c1ccc(Cl)c(S(=O)(=O)C2CC3CCC(C2)N3C2CCCC2)c1` (stereo not shown) [Example 146], in data set [1] (Hepatitis B virus, 120 h), the pEC50 is under 6.70.
Same read-out and setting: the figure for `C[C@H](O)[C@@H](O)[C@]1(O)C2CCC1C[C@@H](S(=O)(=O)c1cc(C(=O)Nc3ccc(F)c(F)c3)n(C)c1)C2` [Example 341] is under 6.70; for `O=C(Nc1ccc(F)c(F)c1)c1ccc(Cl)c(S(=O)(=O)C2CC(O)(CCCO)C2)c1` (stereo not shown) [Example 241] it is under 6.70; for `O=C(Nc1cc(F)c(F)c(F)c1)c1ccc(Cl)c(S(=O)(=O)[C@@H]2CC3CC[C@@H](C2)[C@@]3(O)CNC(=O)[C@]2(O)CCC[C@H]2O)c1` (relative stereo) [Example 59] it is 6.70 to 7.00.
In the case of `COC(=O)CNC(=O)[C@H]1C[C@@H](S(=O)(=O)c2cc(C(=O)Nc3ccc(F)c(F)c3)ccc2Cl)C1` [Example 253b], the pEC50 in data set [1] (Hepatitis B virus, 120 h) is under 6.70.
Same read-out and setting: with `CC(C)N(C)[C@H]1C2CCC1C[C@H](S(=O)(=O)c1cc(C(=O)Nc3ccc(F)c(F)c3)ccc1Cl)C2` [Example 307] the figure was 6.70 to 7.00; with `O=C(O)CNC(=O)C[C@]1(O)C2CCC1C[C@@H](S(=O)(=O)c1cc(C(=O)Nc3cc(F)c(F)c(F)c3)ccc1Cl)C2` [Example 120], under 6.70.
Same read-out and setting: the figure for `O=C(C[C@]1(O)C2CCC1C[C@@H](S(=O)(=O)c1cc(C(=O)Nc3cc(F)c(F)c(F)c3)ccc1Cl)C2)NCC(O)CO` (stereo partly shown) [Example 65] is over 6.98; for `O=C(Nc1ccc(F)c(F)c1)c1ccc(Cl)c(S(=O)(=O)C2CC(C(=O)NCCCO)C2)c1` (stereo not shown) [Example 258] it is under 6.70; for `O=C(Nc1cc(F)c(F)c(F)c1)c1ccc(Cl)c(S(=O)(=O)[C@H]2CC3CCC(C2)[C@]3(O)COCC(O)CO)c1` (stereo partly shown) [Example 63] it is over 6.98.
On the same count and under the same terms, with `O=C(Nc1ccc(F)c(F)c1)c1ccc(Cl)c(S(=O)(=O)C2CC(C(=O)O)C2)c1` (stereo not shown) [Example 251] the figure was under 6.70; with `O=C1CC[C@@H](C(=O)NC[C@]2(O)C3CCC2C[C@@H](S(=O)(=O)c2cc(C(=O)Nc4cc(F)c(F)c(F)c4)ccc2Cl)C3)N1` [Example 127], under 6.70.
On to `O=C(Nc1cc(F)c(F)c(F)c1)c1ccc(Cl)c(S(=O)(=O)[C@H]2CC3CCC(C2)[C@]3(O)[C@H](O)[C@@H](O)CO)c1` [Example 42], for which the pEC50 in data set [1] (Hepatitis B virus, 120 h) was over 6.98.
The same measure, in the same setting: with `COC(=O)C1([C@]2(O)C3CCC2C[C@@H](S(=O)(=O)c2cc(C(=O)Nc4cc(F)c(F)c(F)c4)ccc2Cl)C3)COC(C)(C)O1` (stereo partly shown) [Example 202] the figure was over 6.98; with `O=C(Nc1ccc(F)c(F)c1)c1ccc(Cl)c(S(=O)(=O)[C@H]2CC3CCC(C2)[C@]3(O)C(O)c2ccncc2)c1` (stereo partly shown) [Example 286], 6.70 to 7.00; with `O=C(C[C@]1(O)C2CCC1C[C@@H](S(=O)(=O)c1cc(C(=O)Nc3cc(F)c(F)c(F)c3)ccc1Cl)C2)NC1COC1` [Example 110], over 6.98.
As to `COC(=O)NCC(O)C(=O)NC[C@]1(O)C2CCC1C[C@@H](S(=O)(=O)c1cc(C(=O)Nc3cc(F)c(F)c(F)c3)ccc1Cl)C2` (stereo partly shown) [Example 96], the pEC50 in data set [1] (Hepatitis B virus, 120 h) is 6.70 to 7.00.
Consider `O=C(Nc1cc(F)c(F)c(F)c1)c1ccc(Cl)c(S(=O)(=O)[C@H]2CC3CCC(C2)[C@]3(O)[C@H](O)[C@@H](O)CO)c1` [Example 51], for which the pEC50 in data set [1] is over 6.98.
For the compound `C=CC1(O)CC(S(=O)(=O)c2cc(C(=O)Nc3ccc(F)c(F)c3)ccc2Cl)C1` (stereo not shown) [Example 260], in data set [1] (Hepatitis B virus, 120 h), the negative logarithm of the EC50 (pEC50) is under 6.70.
On the same count and under the same terms, the figure for `O=C(Nc1ccc(F)c(F)c1)c1ccc(Cl)c(S(=O)(=O)CC2CC(O)(CO)C2)c1` (stereo not shown) [Example 200] is under 6.70.
Consider `O=C(Nc1ccc(F)c(F)c1)c1ccc(Cl)c(S(=O)(=O)[C@H]2CC3CCC(C2)[C@]3(O)C(O)Cc2ncc[nH]2)c1` (stereo partly shown) [Example 316], for which the pEC50 in data set [1] (Hepatitis B virus, 120 h) was under 6.70.
On the same count and under the same terms, with `Cc1cc(Cl)c(S(=O)(=O)[C@H]2CC3CCC(C2)[C@@]3(C)O)cc1C(=O)Nc1ccc(F)c(F)c1` [Example 69] the figure was over 6.98.
Same read-out and setting: the figure for `C[C@@H](O)COCC1(O)CC(S(=O)(=O)c2cc(C(=O)Nc3ccc(F)c(F)c3)ccc2Cl)C1` (stereo partly shown) [Example 234] is under 6.70; for `Cc1cccc([C@@H](O)[C@@]2(O)C3CC[C@H]2C[C@H](S(=O)(=O)c2cc(C(=O)Nc4ccc(F)c(F)c4)ccc2Cl)C3)n1` [Example 294b] it is over 6.98; for `C=CCC1(O)CC(S(=O)(=O)c2cc(C(=O)Nc3ccc(F)c(F)c3)ccc2Cl)C1` (stereo not shown) [Example 239] it is under 6.70.
Same read-out and setting: with `CN1C2CCC1CC(S(=O)(=O)c1cc(C(=O)Nc3cc(F)c(F)c(F)c3)ccc1Cl)C2` (stereo not shown) [Example 145] the figure was under 6.70; with `O=C(C[C@]1(O)C2CCC1C[C@@H](S(=O)(=O)c1cc(C(=O)Nc3cc(F)c(F)c(F)c3)ccc1Cl)C2)Nc1nccs1` [Example 138], over 6.98.
